1 compound from US20230338363A1, “COMBINATION CHEMO-IMMUNOTHERAPY FOR PANCREATIC CANCER USING THE IMMUNOGENIC EFFECTS OF AN IRINOTECAN SILICASOME NANOCARRIER PLUS ANTI-PD-1” (The Regents of the University of California, priority 2020, published 2023) can be followed below.

One assay relates to PANC-1 cells. Briefly: Confirmative cellular studies (alkalization, autophagy inhibition, PD-L1 induction). The conditions noted are these: equivalent drug concentration 300 µM, 24 hrs. Type of assay: cell-based, human. The protocol:
To confirm the effect of IRIN, another PDAC cell line, i.e. PANC-1 cells, were used to study IRIN induced alkalization effect (panel A), autophagy inhibition (panel B) and PD-L1 induction (panel C). The treatments included free IRIN, IRIN silicasome and empty silicasome at equivalent drug concentration of 300 µM for 24 hrs. PBS served as a negative control. Bars: 10 µm. Signal intensity was quantified by Image J. At least three representative images were analyzed for each treatment. Data represents mean ± SD, n = 3. *p<0.05, **p<0.01, ***p<0.001 (1-way ANOVA followed by a Tukey’s test). […] No significant effect was observed when empty silicasome was tested.

The test system of another assay is KPC cells. The assay is described as follows: CRT expression (flow cytometry), HMGB1 release (ELISA) and ATP release. The class given is cell-based, mouse. The method, then: 7.5×10^4 KPC cells were seeded into 24-well plates. After cell attachment, KPC cells were treated with IRIN (300 µM), OX (500 µM), DOX (20 µM or PTX (12 µM for 24 h. The cell culture media were collected in 1.5 mL tube and spun down (2,000 rpm for 5 min) to collect the supernatants for HMGB1 detection by an ELISA kit (Catalog# ST51011, IBL International GmbH). Surface CRT expression was measured by flow cytometry in the same experiment, as previously described. ^[27] Briefly, the loosely attached cells were combined with trypsin-treated adhered cells. The cells were washed in cold PBS and then stained with a primary anti-CRT antibody (Abcam, ab2907, 1: 140) in 200 µL BD staining buffer for 0.5 h on ice. The cells were washed in cold PBS and stained with an Alexa Fluor® 680-conjugated secondary antibody (LifeScience Technologies #A21244) for 30 min on ice. After washing in cold PBS, the cells were assessed in a LSRII flow cytometer (BD Biosciences).

The next assay relates to KPC tumor. Briefly: Vaccination experiment with dying chemo-treated KPC cells. The class given is in vivo, mouse. The method, then:
The vaccination schedule is highlighted in FIG. 2, panel C. Eight million KPC cells were seeded in a tissue culture dish. After cellular attachment, IRIN (300 µM or OX (500 µM were added for 24 h. Cells were collected and washed before resuspended in 0.8 mL cold PBS. For vaccination, each mouse received subcutaneous (SC) injection of a 100 µL suspension of chemo-treated cells in the right flank. Control animals received SC injection with 0.1 mL PBS. The vaccination was repeated after 7 days. Fourteen days after the 1st injection, the animals received SC injection of normal KPC cells (1 million cells in 0.1 mL PBS) in the contralateral (left) flank. Tumor growth was measured by a digital caliper every 2-3 days, and the tumor volume calculated according to the formula: length × width^2 /2. Animals were sacrificed on day 26 and the tumors were collected, weighed and fixed in 10% formalin, followed by paraffin embedding and sectioning to derive to 4 µm thick slices for IHC analysis. Primary antibodies to CD8 (#14-0808-82) and FoxP3 (#13-5773-82) were purchased from ThermoFisher. IHC staining was performed in the UCLA Translational Pathology Core Laboratory (TPCL). The slides were scanned and images assessed by using Aperio ImageScope software (Leica).

For another assay, the system named is orthotopic KPC tumor. The assay is described as follows: Survival experiment, IRIN silicasome plus anti-PD-1 in orthotopic KPC tumor model. Type of assay: in vivo, mouse. The method, then:
Panel A) Explanation of the KPC model, including orthotopic implant in the pancreas and technical development of the primary tumor and metastases that can be followed by IVIS imaging. Animals were sacrificed according to the moribund criteria shown. Panel B). Details of the survival experiment in tumor-bearing mice (n = 5-7), which were treated with free IRIN or the silicasome at an IRIN dose equivalent of 40 mg/kg IV every 3- or 4-days, with or without IP administration of 100 µg anti-PD-1 antibody, for a total of six administrations. Please notice that the antibody was administered two days after IRIN injection. Saline and anti-PD-1 antibody alone were used as controls. Kaplan-Meier plots were used to display the survival rate of the different animal groups (*p<0.05, Log Rank test).
The KPC-derived orthotopic tumor model in immunocompetent B6129SF1/J mouse was established as described in FIG. 4, panel A. ^[16] Briefly, 30 µL of DMEM/Matrigel (1:1 v/v), containing ~1×10^6 KPC-luc cells, was injected into the tail of the pancreas in female B6129SF1/J mice (8~10 weeks) by a short survival surgery procedure.^[16] In the first survival experiment (FIG. 4, panel B), tumor-bearing mice were randomly assigned into 6 groups (n = 5-7) and received IV injection of the IRIN formulations at API dose of 40 mg/kg. Anti-PD-1 antibody was injected at 100 µg/animal IP. To assess survival rate, animals were monitored daily up to the stage of spontaneous death or approaching moribund status (defined in FIG. 4, panel A)^[16, 36]. The survival data were plotted as Kaplan-Meier curves, followed by data analysis to derive mean survival time. Statistical analysis and p values were obtained by Log Rank testing (Mantel-Cox), using GraphPad Prism 7.00 software.

The structures appear in SMILES notation. Where a name gives a salt, the structure may show the parent alone.

On to `CCc1c2c(nc3ccc(OC(=O)N4CCC(N5CCCCC5)CC4)cc13)-c1cc3c(c(=O)n1C2)COC(=O)[C@]3(O)CC` [IRIN, Irinotecan hydrochloride trihydrate], for which the “lysosomal pH, LC-3B generation and PD-L1 expression” value in the assay on PANC-1 cells was “capable of neutralizing lysosomal pH, triggered LC-3B generation and increase PD-L1 expression”. In addition, the ATP release result in the assay with KPC cells is on record as “could not demonstrate an increase in ATP release”. For the same compound, the “CRT expression and HMGB1 release” value in the assay on KPC cells (IRIN 300 µM, 24 h) was “strong inducer of both responses”. Moreover, the “growth of tumor on the opposite flank vs PBS control” value with KPC tumor (KPC cells treated with 300 µM IRIN or 500 µM OX, p <0.05) is recorded as “improved the shrinkage of the tumor on the opposite flank significantly”. In addition, in the assay on KPC tumor (day 26), the “tumor disappearance at harvesting” value was “total tumor disappearance in one IRIN-treated animal”. Further, in the assay with KPC tumor (harvested tumors, day 26), the “CD8+ staining number (IHC)” value is recorded as “no significant increase”, the “CD8+/Treg cells ratio (IHC)” value is given as “significantly (p <0.01) increased” and the “FoxP3+ expression (IHC)” value is on record as “significantly (p<0.01) decreased”. Moreover, the “MST (median survival time)” value in the assay with orthotopic KPC tumor (IRIN 40 mg/kg IV, anti-PD-1 100 µg IP, six administrations, saline 19) amounted to 19 days. The “survival (Kaplan-Meier, Log Rank test)” value in the assay on orthotopic KPC tumor (IRIN 40 mg/kg IV, anti-PD-1 100 µg/mouse IP) is listed as “no survival benefits”. Further, the “% ILS (% increase in life span, [(T - C)/C] × 100)” value in the assay on orthotopic KPC tumor (vs. saline) amounted to 0.0%.
